Values of other authors, collected in PubChem BioAssay AID1259409 (Chemical Carcinogenesis Research Information System (CCRIS), 2018).
Where a SMILES comes first, the peptide text is derived from it. [ ]: non-standard residue; d: D form. The star is where a group is joined. Sta = CC(C)C[C@H](N)[C@@H](O)CC(=O)O; Isovaleryl = CC(C)CC(=O)*

Test system: rodent chemically induced tumor inhibition, incidence and multiplicity
Experiment: CCRIS tumor inhibitor studies
[1] = Carcinogen: AZOXYMETHANE, 25843-45-2, Dose [Inhibitor]: 0, 0.02% IN DIET IN WK 1-3 OF STUDY FOLLOWED BY BASAL DIET FOR DURATION OF STUDY (STUDY DURATION: 1 YR), Route [Inhibitor]: ORAL, Species: RAT, Strain/Sex: F344/MALE, Target Tissue: Type of Lesion: LARGE INTESTINE: ADENOCARCINOMA, Dose [Carcinogen]: 15 MG/KG BW 1/WK IN WK 1 AND 2 OF STUDY, Promoter: NONE USED
[2] = Carcinogen: AZOXYMETHANE, 25843-45-2, Dose [Inhibitor]: 0, 0.02% IN DIET IN WK 1-3 OF STUDY FOLLOWED BY BASAL DIET FOR DURATION OF STUDY (STUDY DURATION: 1 YR), Route [Inhibitor]: ORAL, Species: RAT, Strain/Sex: F344/MALE, Target Tissue: Type of Lesion: LARGE INTESTINE: ADENOMA, Dose [Carcinogen]: 15 MG/KG BW 1/WK IN WK 1 AND 2 OF STUDY, Promoter: NONE USED

C=CCc1ccc(O)c(OC)c1
tumour outcome (control, treated, inhibition, significance) (Carcinogen: BENZO[A]PYRENE, 50-32-8, Dose [Inhibitor]: 10 MG IN 0.1 ML ACETONE 3/WK ADMINISTERED SIMULTANEOUSLY WITH CARCINOGEN FOR DU RATION OF STUDY (STUDY DURATION: 368 D), Route [Inhibitor]: DERMAL, Species: MOUSE, Strain/Sex: ICR/FEMALE, Target Tissue: Type of Lesion: SKIN: PAPILLOMA, Dose [Carcinogen]: 5 UG IN 0.1 ML ACETONE 3/WK FOR DURATION OF STUDY, Promoter: NONE USED): 14/50 (28%), 4/50 (8%), 71%, not calculated
tumour outcome (control, treated, inhibition, significance) (Carcinogen: BENZO[A]PYRENE, 50-32-8, Dose [Inhibitor]: 10 MG IN 0.1 ML ACETONE 3/WK ADMINISTERED SIMULTANEOUSLY WITH CARCINOGEN FOR DU RATION OF STUDY (STUDY DURATION: 368 D), Route [Inhibitor]: DERMAL, Species: MOUSE, Strain/Sex: ICR/FEMALE, Target Tissue: Type of Lesion: SKIN: SQUAMOUS CARCINOMA, Dose [Carcinogen]: 5 UG IN 0.1 ML ACETONE 3/WK FOR DURATION OF STUDY, Promoter: NONE USED): 10/50 (20%), 2/50 (4%), 80%, not calculated

Cn1cnc2c1c(=O)[nH]c(=O)n2C
tumour outcome (control, treated, inhibition, significance) (Carcinogen: URETHANE, 51-79-6, Dose [Inhibitor]: 0.05 UMOL/G BW GIVEN AS 7 INJECTIONS 1/6 HR FOR 36 HR AFTER CARCINOGEN TREATMENT FOLLOWED BY 5 MO OBSERVATION PERIOD (ST, Route [Inhibitor]: INTRAPERITONEAL, Species: MOUSE, Strain/Sex: ICR/FEMALE, Target Tissue: Type of Lesion: LUNG: PAPILLARY ADENOMA, Dose [Carcinogen]: 0.1 MG/G BW ONCE AT 25 D OF AGE, Promoter: NONE USED): 31/59 (53%), 11/56 (20%), 62%, p<0.001

CC1=C(/C=C/C(C)=C/C=C/C(C)=C/C(=O)Nc2nn[nH]n2)C(C)(C)CCC1
tumour outcome (control, treated, inhibition, significance) (Carcinogen: N-BUTYL-N-(4-HYDROXYBUTYL)NITROSAMINE, 3817-11-6, Dose [Inhibitor]: 1.5 MMOL/KG DIET DAILY FOR 159 D STARTING 1 WK AFTER THE FINAL CARCINOGEN DOSE (STUDY DURATION: 216 D), Route [Inhibitor]: ORAL, Species: MOUSE, Strain/Sex: BDF/MALE, Target Tissue: Type of Lesion: URINARY BLADDER: TRANSITIONAL CELL CARCINOMA, Dose [Carcinogen]: 7.5 MG 1/WK FOR 8 WK, Promoter: NONE USED): 29/98 (30%), 15/97 (16%), 47%, p<0.05
tumour outcome (control, treated, inhibition, significance) (Carcinogen: N-BUTYL-N-(4-HYDROXYBUTYL)NITROSAMINE, 3817-11-6, Dose [Inhibitor]: 1.5 MMOL/KG/D IN DIET FOR 159 D STARTING 1 WK POST CARCINOGEN TREATMENT (STUDY DURATION: 216 D), Route [Inhibitor]: ORAL, Species: MOUSE, Strain/Sex: BDF/MALE, Target Tissue: Type of Lesion: URINARY BLADDER: TRANSITIONAL CELL CARCINOMA, Dose [Carcinogen]: 7.5 MG 1/WK FOR 8 WK, Promoter: NONE USED): 29/98 (30%), 15/97 (16%), 47%, p<0.05

C/C=C/C1=CC2=C(CO1)C(=O)[C@]1(C)OC(=O)[C@H](C(=O)CCCCC)[C@H]1C2
tumour outcome (control, treated, inhibition, significance) (Carcinogen: PEROXYNITRITE [19059-14-4], Dose [Inhibitor]: 0.0025% FOR 2 WKS BEFORE PROMOTER (STUDY DURATION: 20 WK), Route [Inhibitor]: DRINKING WATER, Species: MOUSE, Strain/Sex: SENCAR/FEMALE (15,?)/(15,?), Target Tissue: Type of Lesion: SKIN: PAPILLOMA, Dose [Carcinogen]: 390 NM IN 0.1 ML 1 MM NAOH ONCE 1 WK AFTER INHIBITOR, Promoter: 12-O-TETRADECANOYLPHORBOL-13-ACETATE [16561-29-8]): 100%, 80%, 20%, not significant
tumour outcome (control, treated, inhibition, significance) (Carcinogen: UVB IRRADIATION, Dose [Inhibitor]: 0.0025% IN DRINKING WATER FOR 2 WKS BEGINNING WHILE MICE RECEIVED UVB (STUDY DURATION: 20 WK), Route [Inhibitor]: DRINKING WATER, Species: MOUSE, Strain/Sex: SENCAR/FEMALE (15,?)/(15,?), Target Tissue: Type of Lesion: SKIN: PAPILLOMA, Dose [Carcinogen]: 15 MIN EACH D FOR 3 D, Promoter: 12-O-TETRADECANOYLPHORBOL-13-ACETATE [16561-29-8]): 100%, 53%, 47%, not significant

CCCCCC(O)CC(=O)CCC1CCC(O)C(OC)C1 (stereo not drawn)
tumour outcome (control, treated, inhibition, significance) [1]: 13/27 (48%), 3/17 (18%), 63%, not calculated
tumour outcome (control, treated, inhibition, significance) [2]: 6/27 (22%), 5/17 (29%), -32%, not calculated
tumour outcome (control, treated, inhibition, significance) (Carcinogen: AZOXYMETHANE, 25843-45-2, Dose [Inhibitor]: 0, 0.02% IN DIET IN WK 1-3 OF STUDY FOLLOWED BY BASAL DIET FOR DURATION OF STUDY (STUDY DURATION: 1 YR), Route [Inhibitor]: ORAL, Species: RAT, Strain/Sex: F344/MALE, Target Tissue: Type of Lesion: SMALL INTESTINE: ADENOCARCINOMA, Dose [Carcinogen]: 15 MG/KG BW 1/WK IN WK 1 AND 2 OF STUDY, Promoter: NONE USED): 6/27 (22%), 0/17 (0%), 100%, not calculated

CC(C)(C)c1cccc(C(C)(C)C)c1O
tumour outcome (control, treated, inhibition, significance) (Carcinogen: BENZO[A]PYRENE, 50-32-8, Dose [Inhibitor]: 0.03 MMOL/G OF DIET DAILY STARTING 7 D BEFORE AND CONTINUING THROUGH 3 D AFTER CARCINOGEN TREATMENT FOLLOWED BY OBSERVAT, Route [Inhibitor]: ORAL, Species: MOUSE, Strain/Sex: ICR/FEMALE, Target Tissue: Type of Lesion: FORESTOMACH: NEOPLASM, Dose [Carcinogen]: 1 MG IN 0.2 ML CORN OIL 2/WK FOR 4 WK, Promoter: NONE USED): 94%, 79%, 16%, not significant

C[C@@]12C[C@@]3(O)O[C@@H](O1)[C@]1(COC(=O)c4ccccc4)[C@H]3C[C@@]12O[C@@H]1O[C@H](CO)[C@@H](O)[C@H](O)[C@H]1O
tumour outcome (control, treated, inhibition, significance) [1]: 13/27 (48%), 5/28 (18%), 63%, not significant
tumour outcome (control, treated, inhibition, significance) [2]: 6/27 (22%), 9/28 (32%), -45%, not significant

O=C(O)c1cc(=O)[nH]c(=O)[nH]1
tumour outcome (control, treated, inhibition, significance) (Carcinogen: URETHANE, 51-79-6, Dose [Inhibitor]: 0.1 MG/GM BW AS A 1% SUSPENSION IN DISTILLED WATER ONCE 14 WK OF AGE SIMULTANEOUS WITH CARCINOGEN TREATMENT (STUDY DURAT, Route [Inhibitor]: INTRAPERITONEAL, Species: MOUSE, Strain/Sex: SWR/MALE, Target Tissue: Type of Lesion: LUNG: ADENOMA, Dose [Carcinogen]: 1 MG/G BW IN DISTILLED WATER ONCE, Promoter: NONE USED): 100%, 100%, 0%, not significant
tumour outcome (control, treated, inhibition, significance) (Carcinogen: URETHANE, 51-79-6, Dose [Inhibitor]: 0.1 MG/GM BW AS A 1% SUSPENSION IN DISTILLED WATER TWICE AT 13 WK OF AGE GIVEN 24 HR APART STARTING 24 HR PRIOR TO CARCI, Route [Inhibitor]: INTRAPERITONEAL, Species: MOUSE, Strain/Sex: SWR/MALE, Target Tissue: Type of Lesion: LUNG: ADENOMA, Dose [Carcinogen]: 0.5 MG/GM BW IN DISTILLED WATER ONCE AT SAME TIME AS LAST AGENT TREATMENT, Promoter: NONE USED): 83%, 100%, -20%, not significant
tumour outcome (control, treated, inhibition, significance) (Carcinogen: URETHANE, 51-79-6, Dose [Inhibitor]: 0.1 MG/GM BW AS A 1% SUSPENSION IN DISTILLED WATER TWICE AT 22 WK OF AGE GIVEN 24 HR APART STARTING 24 HR PRIOR TO CARCI, Route [Inhibitor]: INTRAPERITONEAL, Species: MOUSE, Strain/Sex: SWR/MALE, Target Tissue: Type of Lesion: LUNG: ADENOMA, Dose [Carcinogen]: 0.5 MG/GM BW IN DISTILLED WATER ONCE AT SAME TIME AS LAST AGENT TREATMENT, Promoter: NONE USED): 71%, 71%, 0%, not significant

CC(C)CC(=O)N[C@H](C(=O)N[C@H](C(=O)N[C@@H](CC(C)C)[C@@H](O)CC(=O)N[C@@H](C)C(=O)N[C@@H](CC(C)C)[C@@H](O)CC(=O)O)C(C)C)C(C)C (Isovaleryl-VV[Sta]A[Sta]-OH)
tumour outcome (control, treated, inhibition, significance) (Carcinogen: 1,2,3,4,5,6-HEXACHLOROCYCLOHEXANE, 319-84-6, Dose [Inhibitor]: 0.1% IN DIET FOR 12 WK FOLLOWING CARCINOGEN TREATMENT REGIMEN (STUDY DURATION: 48 WK), Route [Inhibitor]: ORAL, Species: MOUSE, Strain/Sex: DDY/MALE, Target Tissue: Type of Lesion: LIVER: NODULAR HYPERPLASIA, Dose [Carcinogen]: 500 PPM IN DIET FOR 24 WK, Promoter: NONE USED): 1/13 (8%), 1/12 (8%), 0%, not significant
tumour outcome (control, treated, inhibition, significance) (Carcinogen: N-BUTYL-N-(4-HYDROXY-BUTYL)NITROSAMINE, 3817-11-6, Dose [Inhibitor]: 0.1% IN DIET FOR 32 WK FOLLOWING CARCINOGEN TREATMENT REGIMEN (STUDY DURATION: 40 WK), Route [Inhibitor]: ORAL, Species: MOUSE, Strain/Sex: ICR/MALE, Target Tissue: Type of Lesion: URINARY BLADDER: TUMOR, Dose [Carcinogen]: 0.05% IN DRINKING WATER FOR FIRST 8 WK, Promoter: NONE USED): 6/13 (46%), 8/10 (80%), -74%, not calculated
